Converted amounts (≈) assume the structure as drawn. Structures can show the parent of a compound that is named as a salt.
Experiments:
mPTP = mPTP activity assay in isolated rat liver mitochondria (Ca2+ retention, Fluo5N, FLIPR); assay type: biochemical; settings: isolated rat liver mitochondria; average value from multiple experiments (n ≥ 2)
Source text: Pharmacological inhibition or modulation of the mPTP can be measured in well characterised ‘Ca^2+ retention’ assays performed in isolated mitochondria. In vitro, isolated mitochondria rapidly sequester exogenous Ca^2+ until the intramitochondrial Ca^2+ concentration reaches the threshold for mPTP activation. Once the pore is activated, mitochondrial integrity is compromised and the stored Ca^2+ is released. The distribution of Ca^2+ between extra- and intra-mitochondrial compartments can be measured in real time with the use of membrane-impermeant Ca^2+ sensitive fluorescent dyes. Depending on the configuration of the assay, inhibition or modulation of the mPTP either delays the opening of the pore or increases the concentration of Ca^2+ required to induce mPTP opening.
mPTP activity was measured in mitochondria freshly isolated from female Sprague Dawley (250 to 300 gram) rat livers using the following method. Cervical dislocation was performed on the rat. The liver was then perfused in-situ with ˜40 ml cold Dulbecco's Phosphate Buffered Saline (DPBS) prior to dissection and transferred into 30 ml Isolation Buffer (250 mM Sucrose, 10 mM KCl, 1 mM EGTA, 1 mM EDTA, 25 mM HEPES, adjusted to pH 7.5 with 1 M NaOH). Each lobe of the liver was then removed from the buffer, minced using tweezers and a scalpel into ˜5 mm pieces then transferred into a 50 ml Potterton dounce homogenization tube on ice containing 30 ml ice-cold centrifugation buffer (300 mM Trehalose, 25 mM HEPES, 1 mM EGTA, 1 mM EDTA, 10 mM KCl, adjusted to pH 7.5 with 1 M NaOH and supplemented with 0.1% bovine serum albumin (BSA) and complete protease inhibitor cocktail (one tablet of inhibitor per 50 mls of buffer). Homogenisation was carried out using a teflon pestle at 1800 rpm. The slurry was centrifuged at 800 g for 10 min at 4° C., then the supernatant centrifuged at 10,000 g for 10 min. The pellet was washed once with FLIPR assay buffer (75 mM Mannitol, 25 mM Sucrose, 5 mM Potassium Phosphate Monobasic, 20 mM Tris base, 100 mM KCl, 0.1% BSA adjusted to pH 7.4 with 5 M HCl) centrifuged again, then resuspended in FLIPR assay buffer to a concentration of 8.8 mg/ml protein.
Test compounds (10 mM stock in DMSO) were serially diluted in DMSO in half log steps to generate 10 test concentrations (final concentrations in assay 30 μM to 1 nM). An intermediate dilution of 5 μl DMSO samples into 247 μl FLIPR assay buffer was carried out prior to transfer of 5 μl into duplicate wells of a 384 well polypropylene assay plate. Control wells were 0.5% (v/v) DMSO and 5 μM cyclosporin A.
A stock mitochondria/Fluo5N assay solution was prepared in 5.6 ml FLIPR assay buffer (at RT) supplemented with succinate disodium salt (10 mM), rotenone (1 μM), Fluo5N pentapotassium salt (2 μM) and 1 ml mitochondria suspension, then transferred (15 μl) into the assay plate containing test compounds and incubated for 10 min at RT. Assay plates were then transferred to a FLIPR Tetra plate reader (Molecular Devices). Dye fluorescence was then measured every 3 sec for a total of 10 min. After 12 sec, a 2.5 μl bolus of CaCl2 (75 μM) was added from a source plate containing 675 μM CaCl2 in FLIPR assay buffer. IC50 values for test compounds were calculated using the fluorescence value collected at the 10 min timepoint with % inhibition calculated using the DMSO control and cyclosporin A values as […] respectively.

[1] = Hepatocyte clearance assay, rat; assay type: in vitro ADME; settings: cryopreserved primary rat hepatocytes, average value from two experiments, read-out: Rat heps intrinsic clearance (CLint)
Protocol: In vitro clearance studies were performed in primary rat and human hepatocytes (BioIVT). Vials of cryopreserved rat or human hepatocytes were thawed in a 37° C. water bath for 2 min. Cells were transferred into thawing medium (Williams' Medium E containing 30% Percoll, 1× GlutaMAX-1, 15 mM HEPES, 5% fetal bovine serum (FBS), 4 μg/ml insulin, 1 μM dexamethasone), centrifuged at 100 g for 10 min then resuspended in culture medium (Leibovitz's L-15 Medium) at a concentration of 0.5×10^6 viable cells/mL (number of viable cells assessed using AO/PI staining). Hepatocytes (198 μL) were transferred into wells of a 96-well non-coated plate and placed in a 37° C. incubator for 10 min. Test compound solutions were prepared from 10 mM stocks in DMSO, diluted to 100 μM in 50% (v/v in water) acetonitrile. Test compound samples (2 μl) were added to each well of hepatocytes and incubated at 37° C. Samples (25 μl) were collected at t=0, 15, 30, […] and 120 min, mixed with 6 volumes (150 μl) of acetonitrile containing internal standard (100 nM alprazolam, 200 nM caffeine and 100 nM tolbutamide), vortexed for 5 min and centrifuged for 45 min at 3220 g. An aliquot of supernatant (100 μL) was diluted with 100 μL ultra-pure water, and the mixture was used for LC/MS/MS analysis. All incubations were performed in duplicate. Peak areas were determined from extracted ion chromatograms. The slope value, k, was determined by linear regression of the natural logarithm of the remaining percentage of the parent drug vs. incubation time curve. The in vitro half-life (in vitro t1/2) was determined from the slope value: in vitro t1/2=0.693/k. Conversion of the in vitro t1/2 (in min) into the in vitro intrinsic clearance (in vitro CLint, in μL/min/1×10^6 cells) was done using the following equation (mean of duplicate determinations): • in vitro CLint=kV/N • V=incubation volume (0.2 mL) • N=number of hepatocytes per well (0.1×10^6 cells). Microsomal Clearance Assay

PBS solubility = assay type: physicochemical; settings: aqueous buffer, kinetic from dmso stock; PBS pH 7.4, 2 hr at 25° C.
Protocol: Test compounds were prepared as 10 mM stocks in DMSO and 15 μl samples transferred in duplicate into 1.5 mL glass flat bottom vials (BioTech Solutions). Fasted state simulated intestinal fluid (FaSSIF) or PBS (pH 7.4) was added to each vial to final volume of 500 μl. One PTFE encapsulated stir stick (V&P Scientific) was placed in each vial before sealing with PTFE/SIL plugs (BioTech Solutions). Vials were shaken at 1100 rpm for 2 hr at 25° C. Samples were then filtered through MultiScreen Solvinert filter plates (Millipore) via vacuum filtration. Aliquots of filtrate (5 μl) plus 5 μl DMSO were diluted in 490 μl 50% acetonitrile in water containing internal standard. The filtrate was analysed and quantified against a standard of known concentration using LC-MS/MS. Solubility values of the test compound and control compound were calculated as follows: [Sample]=(Area ratiosample*INJ VOL STD*DFsample*[STD])/(Area ratio STD*INJ VOLsample).

| mPTP Rat liver pIC50* (mPTP) | hepatocyte CLint at 1 µM [1] [µL/min/1e6 cells] | solubility at 2 h (PBS solubility) [µM] | SMILES |
| --- | --- | --- | --- |
| 6.2 | – | – | C[C@@H]1Cc2ccccc2[C@H]1NC(=O)/C=C/c1ccc2cn[nH]c2c1 (single isomer, unassigned) [Example 14d] |
| 6.6 | – | – | O=C(/C=C/c1ccc2cn[nH]c2c1)N[C@@H]1C[C@@H](F)c2ccccc21 (single isomer, unassigned) [Example 25] |
| 7.6 | 60 | – | O=C(/C=C/c1cc2[nH]ncc2cc1F)NC1CCc2ccccc21 (stereo not shown) [Example 10, (E)-N-(2,3-dihydro-1H-inden-1-yl)-3-(5-fluoro-1H-indazol-6-yl)acrylamide] |
| 6.9 | 20 | 5.9 (≈ 1.97 µg/mL) | CC1COc2ccccc2C1NC(=O)/C=C/c1ccc2cn[nH]c2c1 (stereo not shown) [Example 15, (E)-3-(1H-indazol-6-yl)-N-(3-methylchroman-4-yl)acrylamide] |
| 6.0 | – | – | O=C(/C=C/c1ccc2cn[nH]c2c1)Nc1ccccc1OCc1ccccc1 [Example 16, (E)-N-(2-(benzyloxy)phenyl)-3-(1H-indazol-6-yl)acrylamide] |
| 6.9 | – | – | O=C(/C=C/c1ccc2cn[nH]c2c1)Nc1ccccc1COc1ccccc1 [Example 17, (E)-3-(1H-indazol-6-yl)-N-(2-(phenoxymethyl)phenyl)acrylamide] |
| 7.6 | 179 | 0.08 (≈ 0.0315 µg/mL) | O=C(/C=C/c1ccc2cn[nH]c2c1)Nc1cccc2cnn(Cc3ccccc3)c12 [Example 19, (E)-N-(1-benzyl-1H-indazol-7-yl)-3-(1H-indazol-6-yl)acrylamide] |
| 6.4 | – | – | O=C(/C=C/c1ccc2cn[nH]c2c1)Nc1cccc(Cl)c1 [Example 22, (E)-N-(3-chlorophenyl)-3-(1H-indazol-6-yl)acrylamide] |
| 5.9 | – | – | O=C(/C=C/c1ccc2cn[nH]c2c1)Nc1cccc(F)c1 [Example 23, (E)-N-(3-fluorophenyl)-3-(1H-indazol-6-yl)acrylamide] |
| 7.0 | – | – | Cc1cccc(F)c1NC(=O)/C=C/c1ccc2cn[nH]c2c1 [Example 33, (E)-N-(2-fluoro-6-methylphenyl)-3-(1H-indazol-6-yl)acrylamide] |
| 5.8 | – | – | CC1CC(NC(=O)/C=C/c2ccc3cn[nH]c3c2)c2ccccc21 (stereo not shown) [Example 39, (E)-3-(1H-indazol-6-yl)-N-(3-methyl-2,3-dihydro-1H-inden-1-yl)acrylamide] |

More lines, now with the values behind:

| SMILES | mPTP Rat liver pIC50* (mPTP) | hepatocyte CLint at 1 µM [1] [µL/min/1e6 cells] | solubility at 2 h (PBS solubility) [µM] |
| --- | --- | --- | --- |
| C[C@@H]1CCCC[C@H]1NC(=O)/C=C/c1ccc2cn[nH]c2c1 (single isomer, unassigned) [Example 4a] | 6.5 | – | – |
| C[C@@H]1CCCC[C@H]1NC(=O)/C=C/c1ccc2cn[nH]c2c1 (single isomer, unassigned) [Example 4b] | 6.3 | – | – |
| O=C(/C=C/c1ccc2cn[nH]c2c1)N[C@@H]1C[C@H](F)c2ccccc21 (single isomer, unassigned) [Example 26] | 6.2 | – | – |
| O=C(/C=C/c1cc2[nH]ncc2cc1Cl)NC1CCc2ccccc21 (stereo not shown) [Example 12, (E)-3-(5-chloro-1H-indazol-6-yl)-N-(2,3-dihydro-1H-inden-1-yl)acrylamide] | 6.0 | – | – |
| CC1Cc2ccccc2C1NC(=O)/C=C/c1ccc2cn[nH]c2c1 (stereo not shown) [Example 14, (E)-3-(1H-indazol-6-yl)-N-(2-methyl-2,3-dihydro-1H-inden-1-yl)acrylamide] | 7.3 | – | – |
| O=C(/C=C/c1ccc2cn[nH]c2c1)Nc1ccccc1COC1CCC1 [Example 18, (E)-N-(2-(cyclobutoxymethyl)phenyl)-3-(1H-indazol-6-yl)acrylamide] | 6.7 | – | – |
| Cn1ncc2cccc(NC(=O)/C=C/c3ccc4cn[nH]c4c3)c21 [Example 20, (E)-3-(1H-indazol-6-yl)-N-(1-methyl-1H-indazol-7-yl)acrylamide] | 7.5 | 10 | 1.3 (≈ 0.413 µg/mL) |
| Cc1cccc(NC(=O)/C=C/c2ccc3cn[nH]c3c2)c1 [Example 21, (E)-3-(1H-indazol-6-yl)-N-(m-tolyl)acrylamide] | 6.5 | – | – |
| O=C(/C=C/c1ccc2cn[nH]c2c1)Nc1ccccc1CO [Example 27, (E)-N-(2-(hydroxymethyl)phenyl)-3-(1H-indazol-6-yl)acrylamide] | 6.8 | – | – |
| O=C(/C=C/c1ccc2cn[nH]c2c1)Nc1ccccc1COC1CN(CCF)C1 [Example 30, (E)-N-(2-(((1-(2-fluoroethyl)azetidin-3-yl)oxy)methyl)phenyl)-3-(1H-indazol-6-yl)acrylamide Hydrochloride] | 5.8 | – | – |
| O=C(/C=C/c1cc2[nH]ncc2cn1)NC1CCc2ccccc21 (stereo not shown) [Example 35, (E)-N-(2,3-dihydro-1H-inden-1-yl)-3-(1H-pyrazolo[4,3-c]pyridin-6-yl)acrylamide] | 5.7 | – | – |
| Cc1cccc2c1C(NC(=O)/C=C/c1ccc3cn[nH]c3c1)CC2 (stereo not shown) [Example 38, (E)-3-(1H-indazol-6-yl)-N-(7-methyl-2,3-dihydro-1H-inden-1-yl)acrylamide] | 5.0 | – | – |
| C#CCOCc1ccccc1NC(=O)/C=C/c1ccc2cn[nH]c2c1 [Example 40, (E)-3-(1H-indazol-6-yl)-N-(2-((prop-2-yn-1-yloxy)methyl)phenyl)acrylamide] | 7.1 | – | – |
